ChEMBL document CHEMBL3352468, “Synthesis and receptor binding in trans-CD ring-fused A-CD estrogens: comparison with the cis-fused isomers” (Bioorg Med Chem Lett, 2014)

How the values were obtained:
Homo sapiens = species on record: Homo sapiens; test: Selectivity ratio of RBA for ERbeta (unknown origin) to RBA for ERalpha (unknown origin)
[1] = molecular target: Estrogen receptor beta (Homo sapiens) (UniProt Q92731); test: Binding affinity to ERbeta (unknown origin) relative to estradiol
Estrogen receptor beta (Homo sapiens), sequence (Q92731 whole entry): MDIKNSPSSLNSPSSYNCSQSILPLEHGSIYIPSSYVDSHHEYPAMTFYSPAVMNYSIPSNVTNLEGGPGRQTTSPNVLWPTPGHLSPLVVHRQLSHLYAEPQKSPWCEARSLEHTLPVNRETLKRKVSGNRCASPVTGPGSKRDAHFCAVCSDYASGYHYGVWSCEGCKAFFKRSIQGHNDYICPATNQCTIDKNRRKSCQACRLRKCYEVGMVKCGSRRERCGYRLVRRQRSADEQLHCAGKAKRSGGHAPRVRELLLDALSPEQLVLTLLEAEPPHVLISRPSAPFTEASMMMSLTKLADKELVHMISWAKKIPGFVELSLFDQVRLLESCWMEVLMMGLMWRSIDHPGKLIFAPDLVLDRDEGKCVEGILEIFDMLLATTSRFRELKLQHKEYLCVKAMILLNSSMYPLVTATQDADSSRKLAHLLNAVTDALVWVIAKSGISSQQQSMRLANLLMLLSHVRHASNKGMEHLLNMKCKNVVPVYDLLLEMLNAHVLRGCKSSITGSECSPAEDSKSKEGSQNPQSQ

Selectivity ratio (Homo sapiens)	relative binding affinity (RBA) [1]	SMILES
1.8	6	C[C@]12CC=C(c3cc(F)c(O)c(F)c3Cl)C[C@H]1CC[C@@H]2O
15.3	3.97	C[C@]12CC[C@H](c3ccc(O)cc3O)C[C@H]1CC[C@@H]2O
2.8	0.226	Cc1c([C@H]2CC[C@@]3(C)[C@@H](CC[C@@H]3O)C2)cc(F)c(O)c1F
11	49	C[C@]12CC=C(c3ccc(O)cc3F)C[C@H]1CC[C@@H]2O
11.9	33.6	Cc1cc(O)ccc1[C@H]1CC[C@@]2(C)[C@H](CC[C@@H]2O)C1
4.8	0.029	COc1cc(O)ccc1C1=CC[C@@]2(C)[C@@H](CC[C@@H]2O)C1
7.7	0.123	COc1cc(O)ccc1[C@H]1CC[C@@]2(C)[C@H](CC[C@@H]2O)C1
4.7	17.3	C[C@]12CC=C(c3ccc(O)cc3)C[C@@H]1CC[C@@H]2O
1.5	14.1	C[C@]12CC=C(c3ccc(O)cc3Cl)C[C@@H]1CC[C@@H]2O
1.4	174	C[C@]12CC=C(c3ccc(O)cc3C(F)(F)F)C[C@H]1CC[C@@H]2O
2.8	1.3	Cc1cc(O)ccc1[C@H]1CC[C@@]2(C)[C@@H](CC[C@@H]2O)C1
1	4.9	C[C@]12CC[C@H](c3ccc(O)cc3C(F)(F)F)C[C@@H]1CC[C@@H]2O
14.6	21.5	C[C@]12CC[C@H](c3ccc(O)cc3)C[C@H]1CC[C@@H]2O
5	136	C[C@]12CC[C@H](c3ccc(O)cc3F)C[C@H]1CC[C@@H]2O
9.3	1.73	C[C@]12CC[C@H](c3cc(F)c(O)c(F)c3F)C[C@H]1CC[C@@H]2O
3.3	0.097	C[C@]12CC[C@H](c3cc(F)c(O)c(F)c3F)C[C@@H]1CC[C@@H]2O
4.2	10	C[C@]12CC[C@H](c3ccc(O)cc3)C[C@@H]1CC[C@@H]2O

Selectivity ratio (Homo sapiens)	relative binding affinity (RBA) [1]	SMILES
4.1	6.84	C[C@]12CC[C@H](c3ccc(O)c(F)c3)C[C@@H]1CC[C@@H]2O
3	149	C[C@]12CC=C(c3ccc(O)c(F)c3Cl)C[C@H]1CC[C@@H]2O
6.1	2.7	C[C@]12CC=C(c3cc(F)c(O)cc3F)C[C@H]1CC[C@@H]2O
9.3	42.8	C[C@]12CC[C@H](c3ccc(O)c(F)c3F)C[C@H]1CC[C@@H]2O
8.4	8.7	C[C@]12CC[C@H](c3ccc(O)c(F)c3)C[C@H]1CC[C@@H]2O
7.9	7.3	C[C@]12CC[C@H](c3ccc(O)c(F)c3F)C[C@@H]1CC[C@@H]2O
4.1	0.15	C[C@]12CC[C@H](c3ccc(O)cc3O)C[C@@H]1CC[C@@H]2O
17	6.8	C[C@]12CC=C(c3ccc(O)cc3)C[C@H]1CC[C@@H]2O
18.3	55	C[C@]12CC=C(c3ccc(O)c(Cl)c3Cl)C[C@H]1CC[C@@H]2O
0.8	0.076	C[C@]12CC=C(c3cc(F)c(O)c(F)c3F)C[C@@H]1CC[C@@H]2O
3.7	0.037	COc1cc(O)ccc1[C@H]1CC[C@@]2(C)[C@@H](CC[C@@H]2O)C1
3.2	13.6	C[C@]12CC[C@H](c3ccc(O)cc3F)C[C@@H]1CC[C@@H]2O
2	118	C[C@]12CC=C(c3ccc(O)cc3Cl)C[C@H]1CC[C@@H]2O
5.5	0.022	COc1cc(O)ccc1C1=CC[C@@]2(C)[C@H](CC[C@@H]2O)C1
7.1	5.35	Cc1c([C@H]2CC[C@@]3(C)[C@H](CC[C@@H]3O)C2)cc(F)c(O)c1F
1.7	38	C[C@]12CC=C(c3ccc(O)cc3F)C[C@@H]1CC[C@@H]2O
